Patent US20090192149A1, “Imidazo Compounds” (SPEEDEL EXPERIMENTA AG, priority 2006, published 2009)

Target: T1, recombinant human Cyp19 enzyme (Homo sapiens, UniProt P11511)
T1 construct: purchased Becton Dickinson Biosciences, San Jose, Calif., USA
T1 sequence (P11511 1-503): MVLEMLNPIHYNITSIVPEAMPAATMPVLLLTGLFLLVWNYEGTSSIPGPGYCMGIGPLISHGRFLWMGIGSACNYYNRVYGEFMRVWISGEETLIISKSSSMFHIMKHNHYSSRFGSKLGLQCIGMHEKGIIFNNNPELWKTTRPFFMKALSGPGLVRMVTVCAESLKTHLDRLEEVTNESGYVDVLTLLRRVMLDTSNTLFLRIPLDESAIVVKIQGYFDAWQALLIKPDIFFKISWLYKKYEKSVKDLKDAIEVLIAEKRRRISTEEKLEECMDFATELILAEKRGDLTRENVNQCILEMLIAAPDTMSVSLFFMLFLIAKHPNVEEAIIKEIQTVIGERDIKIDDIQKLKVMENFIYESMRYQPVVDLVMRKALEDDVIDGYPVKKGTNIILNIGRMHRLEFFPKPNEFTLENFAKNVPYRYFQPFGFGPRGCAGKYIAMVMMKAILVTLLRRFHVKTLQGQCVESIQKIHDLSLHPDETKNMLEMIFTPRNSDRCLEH
Assay: Cyp19/MFC high throughput inhibition kit (Becton Dickinson)
Format: biochemical
Settings: recombinant human Cyp19 supersomes, MFC substrate
Method: A compound of formula (I) is to be understood as a compound having a specific configuration around the designated asymmetric carbon atom labelled “*”. If a synthesis method is used which leads to racemic compounds, the racemate resolution is carried out in accordance with conventional methods, such as via a chiral HPLC column. […] The aforementioned activity can, readily and as described below, be determined by using a commercial Cyp19 enzyme inhibition kit, preferably the Cyp19/methoxy-4-trifluoromethyl-coumarin (MFC) high throughput inhibition kit (Becton Dickinson Biosciences, San Jose, Calif., USA) as described hereafter. In the above-mentioned inhibition kit, compounds of the formula (I) show an inhibiting activity which is at least 10 times higher, but preferably 20 times higher, or more preferably 40 times higher, than the substances of the formula (I) with the opposite configuration around the asymmetric carbon atom labelled “*”. A higher inhibiting activity corresponds to a lower IC50 value.
These effects are demonstrable in in vitro assay tests using cell-free and cellular systems. […] The Cyp19/Methoxy-4-trifluoromethyl-coumarin (MFC) high throughput inhibition kit (Becton Dickinson Biosciences, San Jose, Calif., USA), for example, is designed to screen for potential inhibitors of Cyp19 catalytic activity in a 96-well format. […]

IC50 | SMILES
0.0048 µM | N#Cc1ccc(C2COCc3cncn32)cc1 (single isomer, unassigned) [Example 1, 4-(5,6-Dihydro-8H-imidazo[5,1-c][1,4]oxazin-5-yl)benzonitrile]
8.35 µM | N#Cc1ccc(C2COCc3cncn32)cc1 (centres unmarked) [antipode of 1]
